Results: paper PMC9024338, “Bruceine H Mediates EGFR-TKI Drug Persistence in NSCLC by Notch3-Dependent β-Catenin Activating FOXO3a Signaling” (Frontiers in Oncology, 2022)
Read-outs that look alike come from different tables or passages of the source.

Experiments:
[1] = test system: PC-9/GR cells; assay: CCK-8 cell viability assay, PC-9/GR (gefitinib-resistant); type: cell-based; conditions: Homo sapiens, 48 h, Figure 3B, unit only in axis title Concentration (μM)
Experimental: (§1) The human NSCLC cell lines (A549, PC-9, and PC-9/GR) and other cell lines (16HBE and LO2) were purchased from the American Type Culture Collection (ATCC, Manassas, VA, USA). […] All cell lines were cultivated at 37°C under 5% CO2.
(§2) The Cell Counting Kit-8 assays (Beyotime, Shanghai, China) were performed to assess cell viability. […] Microplate readers (Infinite F500, Tecan, Mannedorf, Switzerland) were used to measure the absorbance (A) at 450 nm. All samples were assessed in triplicate.

[2] = test system: A549 cells; assay: cells; type: cell-based, human; conditions: Homo sapiens
Experimental: as §1, §2

[3] = test system: PC-9 cells; assay: cells; type: cell-based, human; conditions: Homo sapiens
Experimental: as §1, §2

[4] = test system: PC-9 cells; assay: Apoptosis by flow cytometry (Annexin V-FITC/PI), PC-9; type: cell-based, human; conditions: PC-9, 48 h, various concentrations, relative to control
Experimental: (§3) After being digested with trypsin without EDTA, the cells were washed gently with culture medium and twice with cold PBS. The pellet was resuspended in 400 μl of 1× binding buffer, the resuspended cells were transferred to flow tubes, then Annexin V-FITC (5 μl) and propidium iodide (10 μl) were added, and the mixture was incubated for 15 min at room temperature in the dark. The percentage of apoptotic cells was determined by flow cytometry (Backman, CA, USA) and FlowJo V10 software.

[5] = test system: A549 cells; assay: Apoptosis by flow cytometry (Annexin V-FITC/PI), A549; type: cell-based, human; conditions: A549, 48 h, various concentrations, relative to control
Experimental: as §3

[6] = test system: LO2 cells; assay: Toxicity to normal human cell line LO2 (Figure S1); type: cell-based
Experimental: Figure S1. The toxicity of Bruceine H (BH) and Bruceine D (BD) to 16HBE (A) and LO2 (B) cells was evaluated.

[7] = Toxicity study in nude mice: organ index, blood routine, serum biochemistry; type: in vivo
Experimental: At the end of the experiment, blood samples were taken and analyzed by blood routine. […] The lungs and spleen were weighed and recorded. H&E staining of the heart, liver, spleen, lungs, and kidneys was performed to evaluate the cytotoxic effects of BH.

[8] = test system: A549 cells; assay: Transwell migration and Matrigel invasion assays; type: cell-based, human; conditions: dose-dependent, 12 h treatment
Experimental: The Transwell insert in a 24-well plate (8 μm, Corning, NY, USA) was taken out, and a 600-μl medium containing 10% FBS was added to the bottom chamber. The A549 cells were resuspended with 10% FBS culture medium, and the diluted cell suspension (3 × 10^5/300 μl) was cultured in the top chamber and then incubated with or without Matrigel (BD BioCoat). After 12 h, the medium in the top chamber was changed to RPMI-1640 without FBS, and BD or BH with different concentrations was added ([31]). After an additional 12 h, the cells that migrated or invaded the bottom side of the polycarbonate film were fixed with methanol for 30 min and then stained for 15 min with 0.1% crystal violet (Solarbio), after which their number was assessed under a microscope (×4, Nikon).

[9] = test system: PC-9/GR xenografts; assay: PC-9/GR xenografts in BALB/c nude mice; type: in vivo; conditions: BH 2.5 mg/kg, gefitinib 25 mg/kg, alone or co-administered, intragastric
[10] = nude mice serum, mean ± SD (Table S4)
[11] = nude mice, routine blood (Table S3)
[12] = nude mice, Gef 25, BH 2.5, Gef + BH 25 + 2.5 mg×kg^-1×d^-1, X±S

In the case of `CC1=CC(=O)[C@@H](O)[C@]2(C)[C@H]3[C@@H](O)[C@H](O)[C@@]4(CO)OC[C@@]35[C@@H](C[C@@H]12)OC(=O)[C@H](O)[C@]54O` [BH, Bruceine H], the IC50 [1] is reported as 21.7 µM, the IC50 ([2]; A549, 24 h, Figure 2A, read-out: IC50 (24h)) is reported as 44.4 µM and the IC50 ([2]; A549, 48 h, read-out: IC50 (48 h)) is reported as 25.5 µM. The IC50 ([3]; PC-9, 24 h, Figure 2A, read-out: IC50 (24h)) was 55.4 µM, the IC50 ([3]; PC-9, 48 h, read-out: IC50) was 12.6 µM and the late apoptotic rate [4] was “increased”. For the same compound, the early apoptosis rate [5] was “increased”, the “toxicity to LO2 cells” value [6] was “no apparent toxicity” and the HDL-C [7, 10] was 1.14 ± 0.18 mmol/L. For the same compound, the LDL-C [7, 10] was 1.40 ± 0.08 mmol/L, the TC [7, 10] was 3.25 ± 0.21 mmol/L and the TG [7, 10] was 0.70 ± 0.16 mmol/L. The GR [7, 11] was 3.36±2.394 ×10^9/L, the “GR (%)” value [7, 11] was 80.567±11.274% and the HCT [7, 11] was 62.867±5.658%. The HGB [7, 11] was 172.333 ± 12.014 g/L, the LY [7, 11] was 0.920±0.401 ×10^9/L and the “LY (%)” value [7, 11] was 14.7±6.165%. The MCH [7, 11] was 15.567 ± 0.289 pg, the MCHC [7, 11] was 296.333 ± 10.970 g/L and the MCV [7, 11] was 52.567 ± 1.823 fL. The MO [7, 11] was 0.242±0.045 ×10^9/L, the “MO (%)” value [7, 11] was 5.043±1.086% and the MPV [7, 11] was 7.267 ± 0.208 fL. The PCT [7, 11] was 0.753±0.195 mL/L, the PLT [7, 11] was 1030±241.156 ×10^9/L and the RBC [7, 11] was 13.193±1.792 ×10^12/L. The WBC [7, 11] was 6.633±2.371 ×10^8/L, the Lung index [7, 12] was 32.463 ± 2.078 g/kg and the Spleen index [7, 12] was 5.949 ± 0.526 g/kg. The “Transwell migration and invasion of A549” value [8] was “significant anti-invasive and antimigratory actions” and the “tumor growth of PC-9/GR xenografts” value [9] was “slight inhibitory effect”.
